Data from the NIST ThermoML archive (doi:10.1021/je0504459).
Numbers after ± are expanded uncertainties.

Key:
[1] = 101 kPa, Liquid; for speed of sound: Sing-around technique in a fixed-path interferometer
[2] = xn = mol fraction of the nth substance listed; details: 101 kPa, Liquid, x2 = 0; for speed of sound: Sing-around technique in a fixed-path interferometer

SMILES | kinematic viscosity ([1]; 303.15 K) [m2/s] | mass density ([1]; 303.15 K) [kg/m3] | speed of sound ([1]; 303.15 K) [m/s] | kinematic viscosity ([1]; 313.15 K) [m2/s] | mass density ([1]; 313.15 K) [kg/m3] | speed of sound ([1]; 313.15 K) [m/s] | speed of sound ([2]; 303.15 K) [m/s] | kinematic viscosity ([2]; 303.15 K) [m2/s] | mass density ([2]; 303.15 K) [kg/m3] | speed of sound ([2]; 313.15 K) [m/s] | kinematic viscosity ([2]; 313.15 K) [m2/s] | mass density ([2]; 313.15 K) [kg/m3]
CCCCCCCO [heptan-1-ol] | 6.19e-06 ± 7.1e-08 | 814.94 ± 0.57 | 1312 ± 3 | 4.59e-06 ± 5.5e-08 | 807.77 ± 0.6 | 1278 ± 3 |  |  |  |  |  | 
CCCCCCCO [heptan-1-ol] + ClC(Cl)Cl |  |  |  |  |  |  | 1312 ± 3 | 6.19e-06 ± 7.1e-08 | 814.94 ± 0.57 | 1278 ± 3 | 4.59e-06 ± 5.5e-08 | 807.77 ± 0.6
CCCCCCO [hexan-1-ol] | 4.68e-06 ± 5.6e-08 | 811.65 ± 0.57 | 1289 ± 3 | 3.63e-06 ± 4.4e-08 | 804.24 ± 0.6 | 1256 ± 3 |  |  |  |  |  | 
CCCCCCO [hexan-1-ol] + ClC(Cl)Cl |  |  |  |  |  |  | 1289 ± 3 | 4.68e-06 ± 5.6e-08 | 811.65 ± 0.57 | 1256 ± 3 | 3.63e-06 ± 4.4e-08 | 804.24 ± 0.6
CCCCCO [pentan-1-ol] | 3.73e-06 ± 4.2e-08 | 808.6 ± 0.44 | 1264 ± 3 | 2.89e-06 ± 3.3e-08 | 800.99 ± 0.48 | 1228 ± 3 |  |  |  |  |  | 
CCCCCO [pentan-1-ol] + ClC(Cl)Cl |  |  |  |  |  |  | 1264 ± 3 | 3.73e-06 ± 4.2e-08 | 808.6 ± 0.44 | 1228 ± 3 | 2.89e-06 ± 3.3e-08 | 800.99 ± 0.48
ClC(Cl)Cl [trichloromethane] | 3.63e-07 ± 8e-09 | 1469.21 ± 1.1 | 969 ± 2 | 3.39e-07 ± 8e-09 | 1449.74 ± 1.1 | 934 ± 2 |  |  |  |  |  | 
